# Patent US20240197236A1, “ELECTRO-ANATOMIC CARDIAC REPOLARIZATION MAPPING” (University Health Network, priority 2022, published 2024)
# System: rabbit heart
# Test: Rabbit heart Langendorff, simultaneous optical mapping and epicardial electrode-grid mapping of repolarization duration
# Conditions: after 20 uM addition of pinacidil to the perfusate
# Protocol: A study was performed to adapt a rabbit heart Langendorff optical mapping model^42 to add the recording of electrical EGMs to a commercially-available electrode array lab (Advisor […] catheter, Abbott Laboratories), after its use in the clinical laboratory for animal use. This involved using a UHN research mapping system in which unipolar EGMs from a 16-electrode grid were used to record cardiac signals with a proprietary mapping system (described previously as UHN Cartesian Mapping System^43) at a sampling rate of 1 kHz. This electrode array was chosen as spacing between the splines allowed recording of the fluorescence from the voltage-sensitive dye RH237. Fluorescence was recorded with a high-speed CMOS camera (Ultima-L, SciMedia, Costa Mesa, CA) at a rate of 500 frames/s. […] A derivative of the vectorcardiogram was obtained by projecting the repolarization loop along its maximum axis where the projection may be called a loop optimized rEGM (i.e., which is a type of repolarization-optimized EGM that in this case is determined using the loop method described with respect to FIG. 5C). A measurement of repolarization duration, called APD^v, was measured from the onset of QRS to baseline return of the loop rEGM. It was hypothesized that rEGM provides vector-derived integrated action potential duration (APD^v) that correlates with local repolarization assessed by optical mapping. […]
smiles,measurement,setting,value
"CC(N/C(=N\C#N)Nc1ccncc1)C(C)(C)C (centres unmarked) [Pinacidil, pinacidil]",APD (optical APD90 from fluorescence),baseline APD90 151 ms,89 ms
same,ARI (repolarization duration from loop rEGM),baseline APD^v average 142 ms,68 ms
